Experimental data reported in patent US10865390B2, “Alcohol dehydrogenase mutant and application thereof in synthesis of diaryl chiral alcohols” (Jiangnan University, priority 2018, dated 2020).

Legend:
Assay type in all cases: biochemical
Conditions in all cases: NADPH, pH 7.0, 30° C.
[1] = biological target: T1, alcohol dehydrogenase KpADH mutant M8 (Q136N/F161V of SEQ ID No. 1) (Vanderwaltozyma polyspora, UniProt A7TM80, F161V/Q136N); test: Kinetic analysis of KpADH mutant M8 (control example) with CPMK
T1 construct: control mutant M8
Experimental: In an embodiment of the present disclosure, the mutant includes the substitution of asparaginate for glutamine at position 136 of alcohol dehydrogenase with an amino acid sequence shown in SEQ ID No. 1, and the substitution of valine for phenylalanine at position 161, which is named M8.
(§1) Adopting a total reaction system of 200 μL including: 1.0 mM NADPH, 1.0 mM substrate CPMK and sodium phosphate buffer (PBS, 100 mM, pH 7.0), fully and evenly mixing, maintaining at 30° C. for 2 min, adding an appropriate amount of enzyme solution, and detecting the change in light absorption at 340 nm.
(§2) The enzyme activity was calculated by the following formula: Enzyme activity (U)=EW×V×10^3/(6220×1);
(§3) in the formula, EW is the change in absorbance at 340 nm in 1 min; V is the volume of a reaction solution in mL; 6220 is the molar extinction coefficient of NADPH in L/(mol·cm); and 1 is the optical path distance in cm. One activity unit (U) corresponds to the amount of enzyme required to catalyze the oxidation of 1 μmol NADPH per minute under the above conditions. […]
(§4) The activity of KpADH at different substrate concentrations and coenzyme concentrations was determined, and a double reciprocal curve was made based on the reciprocal of activity and substrate concentration to calculate kinetic parameters.

[2] = biological target: T2, alcohol dehydrogenase KpADH mutant M5 (E214G/S237C/Q136N/S196G of SEQ ID No. 2) (Vanderwaltozyma polyspora, UniProt A7TM80, E214G/Q136N/S196G/S237C); test: Kinetic analysis of KpADH mutant M5 with CPMK
T2 construct: mutant M5
Experimental: In an embodiment of the present disclosure, the mutant includes the substitution of glycine for glutamic acid at position 214 of the amino acid sequence shown in SEQ ID No. 2, the substitution of cysteine for serine at position 237, the substitution of asparaginate for glutamine at position 136, and the substitution of glycine for serine at position 196, which is named M5.
as §1, §2, §3, §4

[3] = biological target: T3, alcohol dehydrogenase KpADH mutant M9 (S196G/S237C of SEQ ID No. 1) (Vanderwaltozyma polyspora, UniProt A7TM80, S196G/S237C); test: Kinetic analysis of KpADH mutant M9 (control example) with CPMK
T3 construct: control mutant M9
Experimental: In an embodiment of the present disclosure, the mutant includes the substitution of glycine for serine at position 196 of the alcohol dehydrogenase with the amino acid sequence shown in SEQ ID No. 1, and the substitution of cysteine for serine at position 237, which is named M9.
as §1, §2, §3, §4

[4] = biological target: T4, alcohol dehydrogenase KpADH, wild type, SEQ ID No. 2 (Vanderwaltozyma polyspora, UniProt A7TM80); test: Kinetic analysis of KpADH wild type with CPMK
T4 sequence (A7TM80 1-342): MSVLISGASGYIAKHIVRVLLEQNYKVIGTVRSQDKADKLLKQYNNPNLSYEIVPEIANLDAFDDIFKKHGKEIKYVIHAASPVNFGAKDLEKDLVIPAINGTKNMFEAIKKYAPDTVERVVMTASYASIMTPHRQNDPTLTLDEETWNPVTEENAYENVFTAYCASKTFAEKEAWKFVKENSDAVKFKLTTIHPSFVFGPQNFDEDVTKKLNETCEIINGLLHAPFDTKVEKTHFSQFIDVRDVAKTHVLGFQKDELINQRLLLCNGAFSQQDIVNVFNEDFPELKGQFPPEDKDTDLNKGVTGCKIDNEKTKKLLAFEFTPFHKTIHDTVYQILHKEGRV
Experimental: as §1, §2
in the formula, EW is the change in absorbance at 340 nm in 1 min; V is the volume of a reaction solution in mL; 6220 is the molar extinction coefficient of NADPH in L/(mol·cm); and 1 is the optical path distance in cm. One activity unit (U) corresponds to the amount of enzyme required to catalyze the oxidation of 1 μmol NADPH per minute under the above conditions.
A column used for purification was a nickel affinity column HisTrap FF crude, and purification was achieved through affinity chromatography using a histidine tag on recombinant protein. The nickel column was equilibrated with a solution A first, a crude enzyme solution was loaded, a penetrating peak was further eluted off using the solution A, and after equilibrium, a solution B (20 mM sodium phosphate, 500 mM NaCl, and 1000 mM imidazole, pH 7.4) was used for gradient elution to elute off the recombinant protein bound to the nickel column, so as to obtain the recombinant alcohol dehydrogenase mutant. The purified protein was subjected to activity measurement (CPMK as substrate, and NADPH as coenzyme) and SDS-PAGE analysis. […] The purified alcohol dehydrogenase protein was then replaced into a Tris-HCl (100 mM, pH 7.0) buffer using a Hi Trap Desalting column (GE Healthcare).
as §4

[5] = biological target: T5, alcohol dehydrogenase KpADH mutant M7 (E214V/T215S of SEQ ID No. 2) (Vanderwaltozyma polyspora, UniProt A7TM80, E214V/T215S); test: Kinetic analysis of KpADH mutant M7 with CPMK
T5 construct: mutant M7
Experimental: In an embodiment of the present disclosure, the mutant includes the substitution of valine for glutamic acid at position 214 of the amino acid sequence shown in SEQ ID No. 2, and the substitution of serine for threonine at position 215, which is named M7.
as §1, §2, §3, §4

`O=C(c1ccc(Cl)cc1)c1ccccn1` [CPMK, (4-chlorophenyl)-(pyridin-2-yl)-methanone] was tested, and the Kcat [1] was 14.8 s⁻¹, the Vmax [1] was 22.3 µmol/min/mg and the Kcat [2] was 17.0 s⁻¹. It also gave a Vmax [2] of 21.3 µmol/min/mg, a Kcat [3] of 17.6 s⁻¹ and a Vmax [3] of 26.5 µmol/min/mg. The Kcat [4] was 11.8 s⁻¹, the Km [4] was 410 µM and the Vmax [4] was 17.9 µmol/min/mg. The Kcat [5] was 14.2 s⁻¹ and the Vmax [5] was 21.3 µmol/min/mg.
